Converted amounts (≈) assume the structure as drawn. One block for each compound: values may come before it.
What was measured:
MDA-MB-231 [1] = assay: Cytotoxicity against human MDA-MB-231 cells assessed as cell growth inhibition incubated for 48 hrs by crystal violet staining based spectrofluorimeter assay; type: functional; details: MDA-MB-231, 48 h
MDA-MB-231 [2] = assay: Inhibition of cell migration in human MDA-MB-231 cells incubated upto 48 hrs by inverted microscopic analysis; type: functional
HeLa [3] = assay: Cytotoxicity against human HeLa cells assessed as inhibition of cell growth incubated for 24 hrs by MTT assay; type: functional, cell-based
Ca-Ski = assay: Cytotoxicity against human Ca-Ski cells assessed as inhibition of cell growth incubated for 24 hrs by MTT assay; type: functional, cell-based
CCRF S-180 [4] = assay: Antitumor activity against mouse CCRF S-180 cells implanted in Kunming mouse assessed as inhibition of tumor growth at 1 mg/kg,ip administered for 9 consecutive days; type: functional
CCRF S-180 [5] = assay: Antitumor activity against mouse CCRF S-180 cells implanted in Kunming mouse assessed as inhibition of tumor growth at 2 mg/kg,ip administered for 9 consecutive days; type: functional
CCRF S-180 [6] = assay: Antitumor activity against mouse CCRF S-180 cells implanted in Kunming mouse assessed as inhibition of tumor growth at 4 mg/kg,ip administered for 9 consecutive days; type: functional
MDA-MB-435 = assay: Inhibition of cell migration in human MDA-MB-435 cells incubated for 24 hrs by hematoxylin staining based assay; type: functional; details: MDA-MB-435, 24 h
[7] = Cytotoxicity against human HEK293F cells; type: toxicity, cell-based
MKN-45 = assay: Cytotoxicity against human MKN-45 cells; type: functional, cell-based
ACHN [8] = assay: Cytotoxicity against human ACHN cells; type: functional, cell-based
HeLa [9] = assay: Cytotoxicity against human HeLa cells; type: functional, cell-based
ACHN [10] = assay: Cytotoxicity against human ACHN cells assessed as cell viability; type: functional
ACHN [11] = assay: Cytotoxicity against human ACHN cells assessed as cell viability at 5 mM in presence of paclitaxel; type: functional; details: read-out: Activity
[12] = Cytotoxicity against mouse BV-2 cells assessed as inhibition of cell growth incubated for 24 hrs by CTG luminescence assay; type: toxicity, cell-based
[13] = Cytotoxicity against rat Highly aggressively proliferating immortalized Microglia cells assessed as inhibition of cell growth incubated for 24 hrs by CTG luminescence assay; type: toxicity, cell-based
C6 = assay: Antimitotic activity against rat C6 cells assessed as inhibition of cell proliferation by measuring inhibitory dose by [3H]-thymidine incorporation based […]; type: functional; details: read-out: ID50 (the source's name)
MDA-MB-231 [14] = assay: Cytotoxicity against human MDA-MB-231 cells assessed as inhibition of cell proliferation by MTT colorimetric assay; type: functional, cell-based
A549 = assay: Cytotoxicity against human A549 cells assessed as inhibition of cell proliferation by MTT colorimetric assay; type: functional, cell-based
HSC-2 = assay: Cytotoxicity against human HSC-2 cells assessed as inhibition of cell proliferation by MTT colorimetric assay; type: functional, cell-based
Ca9-22 = assay: Cytotoxicity against human Ca9-22 cells assessed as inhibition of cell proliferation by MTT colorimetric assay; type: functional, cell-based
MCF7 [15] = assay: Antiproliferative activity against human MCF7 cells assessed as inhibition of cell proliferation; type: functional, cell-based
HCT-116 = assay: Antiproliferative activity against human HCT-116 cells assessed as inhibition of cell proliferation; type: functional, cell-based
MDA-MB-231 [16] = assay: Cytotoxicity against human MDA-MB-231 cells assessed as cell growth inhibition by alamar blue assay; type: functional, cell-based
MCF7 [17] = assay: Cytotoxicity against human MCF7 cells assessed as cell growth inhibition by MTT assay; type: functional, cell-based
HeLa [18] = assay: Cytotoxicity against human HeLa cells assessed as cell growth inhibition by alamar blue assay; type: functional, cell-based
U-937 = assay: Cytotoxicity against human U-937 cells assessed as cell growth inhibition by alamar blue assay; type: functional, cell-based
Jurkat = assay: Cytotoxicity against human Jurkat cells assessed as cell growth inhibition by alamar blue assay; type: functional, cell-based
MCF-10A = assay: Cytotoxicity against human MCF-10A cells assessed as cell growth inhibition by alamar blue assay; type: functional, cell-based
[19] = Cytotoxicity against mouse NIH/3T3 cells assessed as cell growth inhibition by alamar blue assay; type: toxicity, cell-based, NIH3T3

Compound: CC(=O)OC[C@H]1O[C@H]2O[C@@H](C)CCCCCC/C=C\CCCCCCCC(=O)O[C@@H]3[C@@H](O)[C@H](O[C@@H]2[C@@H](O)[C@@H]1O)O[C@H](COC(C)=O)[C@H]3O
IC50 (MDA-MB-231 [1]): 21.7 µM | inhibition (INH) (MDA-MB-231 [2]): 41.5% | IC50 (HeLa [3]): 12.2 µg/mL (≈ 17.8 µM) | IC50 (Ca-Ski): 25.3 µg/mL (≈ 36.8 µM)

Compound: CCCCCCCCCCCCCO[C@@H]1O[C@H](CO[C@@H]2O[C@H](CO)[C@@H](O[C@@H]3O[C@H](CO[C@@H]4O[C@H](CO)[C@@H](O)[C@H](O)[C@H]4O)[C@@H](O)[C@H](O[C@@H]4O[C@H](CO)[C@@H](O)[C@H](O)[C@H]4O)[C@H]3O)[C@H](O)[C@H]2O)[C@@H](O)[C@H](O[C@@H]2O[C@H](CO)[C@@H](O[C@@H]3O[C@H](CO)[C@H](O)[C@H](O)[C@H]3O)[C@H](O)[C@H]2O)[C@H]1O
inhibition in vivo at 1 mg/kg (CCRF S-180 [4]): 39.1% | inhibition in vivo at 2 mg/kg (CCRF S-180 [5]): 39.9% | inhibition in vivo at 4 mg/kg (CCRF S-180 [6]): 37.9%

Compound: CCCCCCCCCCCCCCCCOCC(COC1O[C@H](CO)[C@@H](O[C@@H]2O[C@H](CO)[C@H](O)[C@H](O)[C@H]2O)[C@H](O)[C@H]1O)OC (stereo not given in full)
IC50 (MDA-MB-435): 0.3 µM

Compound: CCCCCCCC(=O)O[C@H]1[C@H](OC[C@H](O)[C@H](O)[C@@H](O)[C@@H](O)CO)O[C@H](COC(=O)CCCCC)[C@@H](OC(=O)CCCCC)[C@@H]1OC(=O)CCCCC
IC50 [7]: 18.1 µM | IC50 (MKN-45): 14.9 µM | IC50 (ACHN [8]): 17 µM | IC50 (HeLa [9]): 16.7 µM | Activity (ACHN [10]): 63.8% | viability at 5000 µM (ACHN [11]): 40.6%

Compound: CCCCCCC[C@@H](CC(=O)N[C@H](CO)CC(C)C)OC(=O)C[C@H](CCCCCCC)OC(=O)C[C@H](CCCCCCC)O[C@@H]1O[C@@H](C)[C@H](O)[C@@H](O)[C@H]1O
IC50 at 24 h [12]: 6.9 µM | IC50 at 24 h [13]: 22 µM

Compound: CO[C@@H]1O[C@H](CO)[C@@H](O[C@@H]2O[C@H](CO)[C@H](OS(=O)(=O)O)[C@H](O)[C@H]2O)[C@H](O[C@@H]2O[C@@H](C)[C@@H](O)[C@@H](O)[C@@H]2O)[C@H]1O
IC50 (C6): 79 µM

Compound: C=CCCCC[C@@H](C)O[C@@H]1O[C@@H](C)[C@H](OC(=O)C[C@H]2C[C@@H]3O[C@]4(C)CC[C@H]5[C@H](C)CC[C@@H]([C@H]2C)[C@@]35OO4)C[C@H]1O
IC50 (MDA-MB-231 [14]): 15.1 µM | IC50 (A549): 15.1 µM | IC50 (HSC-2): 15.1 µM | IC50 (Ca9-22): 15.1 µM

IC50 (MCF7 [15]): 0.003 µM | IC50 (HCT-116): 0.003 µM
Compound: CCC/C=C\C[C@@H](O[C@H](/C=C/[C@@H](C/C=C\CCCC(=O)OC)OC[C@H]1O[C@@H](OC[C@H](O)CO)[C@H](O)[C@@H](O)[C@@H]1O)[C@H](O)C/C=C\CCCCC)[C@H](O)/C=C/[C@@H](O)CCCCC(=O)OC

Compound: C/C=C(\C)C(=O)O[C@@H]1[C@@H](O)[C@H](O[C@H]2[C@H](O[C@H](CCC)CCCCC)O[C@H](C)[C@H](OC(C)=O)[C@@H]2O)O[C@H](COC(=O)CCC(=O)CCC)[C@H]1OC(=O)/C=C/c1ccccc1
IC50 (MDA-MB-231 [16]): 0.0188 µM | IC50 (MCF7 [17]): 0.0782 µM | IC50 (HeLa [18]): 0.03 µM | IC50 (U-937): 0.0171 µM | IC50 (Jurkat): 0.0225 µM | IC50 (MCF-10A): 0.0118 µM | IC50 [19]: 0.0207 µM
